In patent US8247409B2, “Thieno-[2,3-d]pyrimidine and thieno-pyridazine compounds and methods of use” (Amgen Inc., priority 2006, dated 2012) one finds IC50 data, which are given here for eleven compounds.

The test relates to LPS induced TNF release from monocytes. Kind of test: Lipopolysaccharide-activated Monocyte TNF Production Assay. It counts as cell-based. As to conditions: Homo sapiens, monocytes activated with LPS, TNF in supernatant by ELISA. On the procedure:
Lipopolysaccharide-activated Monocyte TNF Production Assay
Test compounds were evaluated in vitro for the ability to inhibit the production of TNF by monocytes activated with bacterial lipopolysaccharide (LPS). Fresh residual source leukocytes (a byproduct of plateletpheresis) were obtained from a local blood bank, and peripheral blood mononuclear cells (PBMCs) were isolated by density gradient centrifugation on Ficol-Paque Plus (Pharmacia). PBMCs were suspended at 2×10^6/mL in DMEM supplemented to contain 2% FCS, 10 mM, 0.3 mg/mL […], 100 U/mL penicillin G and […] streptomycin sulfate (complete media). Cells were plated into Falcon flat bottom, 96 well culture plates (200 μL/well) and cultured overnight at 37° C. and 6% CO2. Non-adherent cells were removed by washing with 200 μL/well of fresh medium. Wells containing adherent cells (˜70% monocytes) were replenished with 100 μL of fresh medium.
Preparation of Test Compound Stock Solutions
Test compounds were dissolved in […]. Compound stock solutions were prepared to an initial concentration of […]. Stocks were diluted initially to 20-200 μM in complete media. Nine two-fold serial dilutions of each compound were then prepared in complete medium.
Treatment of Cells with Test Compounds and Activation of TNF Production with Lipopolysaccharide
One hundred microliters of each test compound dilution were added to microtiter wells containing adherent monocytes and 100 μL complete medium. Monocytes were cultured with test compounds for 60 min at which time 25 μL of complete medium containing 30 ng/mL lipopolysaccharide from E. coli K532 were added to each well. Cells were cultured an additional 4 hrs. Culture supernatants were then removed and TNF presence in the supernatants was quantified using an ELISA.
Flat bottom, 96 well Corning High Binding ELISA plates were coated overnight (4° C.) with 150 μL/well of 3 μg/mL murine anti-human TNF-α MAb (R&D Systems #MAB210). Wells were then blocked for 1 h at room temperature with 200 μL/well of CaCl2-free ELISA buffer supplemented to contain 20 mg/mL BSA (standard ELISA buffer: […], 150 mM NaCl, 2 mM CaCl2, 0.15 mM thimerosal, pH 7.4). Plates were washed and replenished with 100 μL of test supernatants (diluted 1:3) or standards. Standards consisted of eleven 1.5-fold serial dilutions from a stock of 1 ng/mL recombinant human TNF (R&D Systems). Plates were incubated at room temperature for 1 hr on orbital shaker (300 rpm); washed and replenished with 100 μL/well of 0.5 μg/mL goat anti-human TNF-α (R&D systems #AB-210-NA) biotinylated at a 4:1 ratio. Plates were incubated for 40 min, washed and replenished with 100 μL/well of alkaline phosphatase-conjugated streptavidin (Jackson ImmunoResearch #016-050-084) at 0.02 μg/mL. Plates were incubated 30 min, washed and replenished with 200 μL/well of 1 mg/mL of p-nitrophenyl phosphate. After 30 min, plates were read at 405 nm on a Vmax plate reader.
Standard curve data were fit to a second order polynomial and unknown TNF-α concentrations determined from their OD by solving this equation for concentration. TNF concentrations were then plotted vs. test compound concentration using a second order polynomial. This equation was then used to calculate the concentration of test compounds causing a 50% reduction in TNF production.
A general note: ELISA stands for enzyme-linked immunosorbent assay.

In the case of `Cc1ccc(C(=O)NC2CC2)cc1-c1cc2cnc(CCN3CCOCC3)nc2s1` [Example 1, N-Cyclopropyl-4-methyl-3-(2-(2-morpholinoethyl)thieno[2,3-d]pyrimidin-6-yl)benzamide], the 50% inhibitory concentration (IC50) (as a rule, the concentration that inhibits the measured activity by half) was at most 5 µM.
The result for `CCNC(=O)c1ccc(C)c(-c2cc3cnc(NCCN4CCOCC4)nc3s2)c1` [Example 9, N-ethyl-4-methyl-3-(2-((2-(4-morpholinyl)ethyl)amino)thieno[2,3-d]pyrimidin-6-yl)benzamide] reads at most 5 µM.
The result for `Cc1ccc(C(=O)NC2CC2)cc1-c1cc2cnnc(Cl)c2s1` [Example 21, 3-(7-chlorothieno[2,3-d]pyridazin-2-yl)-N-cyclopropyl-4-methylbenzamide] reads at most 5 µM; that for `CCN(CC)CCCNc1ncc2cc(-c3cc(C(=O)NC4CC4)ccc3C)sc2n1` [Example 7, N-cyclopropyl-3-(2-((3-(diethylamino)propyl)amino)thieno[2,3-d]pyrimidin-6-yl)-4-methylbenzamide], at most 5 µM; that for `Cc1ccc(C(=O)NC2CC2)cc1-c1cc2cnnc(N3CCNC(=O)C3)c2s1` [Example 6, N-cyclopropyl-4-methyl-3-(7-(3-oxopiperazin-1-yl)thieno[2,3-d]pyridazin-2-yl)benzamide], at most 5 µM.
The result for `Cc1ccc(C(N)=O)cc1-c1cc2cnnc(-c3ccc(F)cc3C)c2s1` [Example 27, 3-(7-(4-fluoro-2-methylphenyl)thieno[2,3-d]pyridazin-2-yl)-4-methylbenzamide] reads at most 5 µM; that for `Cc1ccc(C(=O)NC2CC2)cc1-c1cc2cnc(NCC3CCCN(C(=O)OC(C)(C)C)C3)nc2s1` (centres unmarked) [Example 14, 1,1-dimethylethyl 3-(((6-(5-((cyclopropylamino)carbonyl)-2-methylphenyl)thieno[2,3-d]pyrimidin-2-yl)amino)methyl)-1-piperidinecarboxylate], at most 5 µM.
In turn, `Cc1ccc(C(=O)O)cc1-c1cc2cnc(NCCN3CCOCC3)nc2s1` [Example 10, 4-methyl-3-(2-((2-(4-morpholinyl)ethyl)amino)thieno[2,3-d]pyrimidin-6-yl)benzoic acid] showed an IC50 of at most 5 µM.
The result for `COc1ncccc1-c1nncc2cc(-c3cc(C(=O)NC4CC4)ccc3C)sc12` [Example 23, N-cyclopropyl-4-methyl-3-(7-(2-(methyloxy)-3-pyridinyl)thieno[2,3-d]pyridazin-2-yl)benzamide] reads at most 5 µM; that for `COc1c(F)cccc1-c1nncc2cc(-c3cc(C(=O)NC4CC4)ccc3C)sc12` [Example 3, N-cyclopropyl-3-(7-(3-fluoro-2-methoxyphenyl)thieno[2,3-d]pyridazin-2-yl)-4-methylbenzamide], at most 5 µM; that for `Cc1ccc(C(=O)NC2CC2)cc1-c1cc2cnnc(-c3ccc(F)cc3C)c2s1` [Example 22, N-cyclopropyl-3-(7-(4-fluoro-2-methylphenyl)thieno[2,3-d]pyridazin-2-yl)-4-methylbenzamide], at most 5 µM.
